Reference: publication PMC3371050, “Characterisation of a Novel White Laccase from the Deuteromycete Fungus Myrothecium verrucaria NF-05 and Its Decolourisation of Dyes” (PLoS ONE, 2012)
Where two headings read alike, the source gives them in different places. Blank lines part the entries; values can stand above or below the compound they belong to.

Legend:
Conditions in all cases: 0.2 M citric acid pH 4.0, 30°C
[1] = tested on: white laccase from Myrothecium verrucaria NF-05
[2] = tested on: white laccase from Myrothecium verrucaria NF-05; remark: listed apart in the source
[3] = tested on: T1, white laccase from Myrothecium verrucaria NF-05; test: oxidation at […] nm, Lineweaver-Burk; type: biochemical, Albifimbria verrucaria
T1 construct: native extracellular enzyme purified from culture medium; about 66 kDa monomer; 3 Cu and 1 Fe per molecule; no bilirubin oxidase activity detected in the fermentation liquid

[4] = tested on: T1, white laccase from Myrothecium verrucaria NF-05; test: oxidation at […] nm, Lineweaver-Burk; type: biochemical, Albifimbria verrucaria; remark: listed apart in the source

- Km [1]: 2090 µM
Compound: Oc1ccc(O)cc1 [hydroquinone]

- Km [2]: 85.9 µM
Compound: CCn1c(=NN=c2sc3cc(S(=O)(=O)O)ccc3n2CC)sc2cc(S(=O)(=O)O)ccc21 [ABTS, 2,2′-azinobis-(3-ethylbenzothiazoline-6-sulphonic acid)]

Compound: Oc1ccccc1O [catechol]
- Km [3]: 329 µM

- Km [4]: 312 µM
Compound: COc1ccccc1O [guaiacol]
